In PubChem BioAssay (NCI):
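Each compound was tested at five concentrations against cells in 96-well plates for 48 hours. GI50: concentration for 50% inhibition of growth. The concentration for full growth arrest is given as TGI.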

Experiments:
Experiment in all cases: DTP human tumour cell line panel, 48 h
[1] = tested on: SF-295 CNS
[2] = tested on: M14 melanoma
[3] = tested on: HT29 colon
[4] = tested on: SNB-75 CNS
[5] = tested on: A549 NSCLC
[6] = tested on: MCF7 breast
[7] = tested on: OVCAR-8 ovarian
[8] = tested on: SK-MEL-2 melanoma
[9] = tested on: PC-3 prostate
[10] = tested on: MOLT-4 leukemia

| SMILES | GI50 [1] [µM] | TGI [1] [µM] | GI50 [2] [µM] | TGI [2] [µM] | GI50 [3] [µM] | TGI [3] [µM] | GI50 [4] [µM] | TGI [4] [µM] | GI50 [5] [µM] | TGI [5] [µM] | GI50 [6] [µM] | TGI [6] [µM] | GI50 [7] [µM] | TGI [7] [µM] | GI50 [8] [µM] | TGI [8] [µM] | GI50 [9] [µM] | TGI [9] [µM] | GI50 [10] [µM] | TGI [10] [µM] |
| --- | --- | --- | --- | --- | --- | --- | --- | --- | --- | --- | --- | --- | --- | --- | --- | --- | --- | --- | --- | --- |
| CNCCNc1nc2ccccc2c2c(=O)c3cccc(OC)c3sc12 | 1.55 | 3.13 | 1.59 | 3.01 | 0.652 | 2.28 | 1.1 | 2.33 | 1.2 | 2.78 | 1.17 | 2.59 | 1.15 | 2.8 | 1.78 | 3.62 | 1.24 | 2.8 | 0.427 | 1.63 |
| C[n+]1c2ccccc2c(NC2CCNCC2)c2[nH]c3ccccc3c21 | 0.64 | 8.32 | 2.41 | 13.4 | 0.18 | 2.64 | 0.524 | 2.72 | 0.0812 | 2.73 | 0.231 | 2.2 | 1.42 | 12.8 | 0.207 | 1.22 | 1.53 | 5.75 | 0.114 |  |
| COC(=O)c1oc2c(C(=O)/C=C/c3ccc(OC)cc3)c(OCCCN3CCCCC3)ccc2c1C | 1.8 | 3.93 | 1.61 | 3.59 | 1.49 | 3.22 | 1.89 | 6.37 | 2.04 | 5.28 | 1.15 | 2.5 | 1.67 | 4.23 | 1.87 | 7.65 | 2.39 | 7.02 | 1.6 | 4.97 |
